Reference: the supplement of paper PMC10627819

Assays:
S. aureus Newman [1] = experiment: fitness (endpoint OD595 vs no drug) (fraction); higher = more growth
Method in brief: (§1)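 Each well of a 384-well plate received 30 µl of culture at OD595 0.01, or 55 µl for S. pneumoniae. TSB, LB Lennox or CY served as media at 37 °C. OD595 was taken every 30 min for 14 h and corrected by subtracting the first reading. Fitness is the optical density at stationary-phase entry divided by the robust mean of no-drug controls, capped at 1.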

S. aureus DSM 20231 [2] = experiment: as above
Method in brief: as §1

S. pneumoniae D39V [3] = experiment: as above
Method in brief: as §1

S. aureus Newman [4] = experiment: Bliss interaction score (quartile over a dose matrix) (fitness difference); higher = more antagonism (negative = synergy)
Method in brief: (§2)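 Growth in each well was taken as OD595 at entry into stationary phase. Dividing by the plate's robust no-drug mean and capping at 1 gave fitness, and single-drug fitness was inferred from the combination data. The Bliss score, observed minus product-expected fitness, is summarised by quartiles over technical, biological and donor/recipient replicates.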

S. aureus DSM 20231 [5] = experiment: as above
Method in brief: as §2

B. subtilis 168 = experiment: as above
Method in brief: as §2

S. pneumoniae D39V [6] = experiment: as above
Method in brief: as §2
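For Bliss interaction score (quartile over a dose matrix) in this document: first quartile when negative (synergy) and third quartile when positive (antagonism).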

Cc1ncc([N+](=O)[O-])n1CCO [Metronidazole] + Cn1nnc(-c2ccc(-c3ccc(N4C[C@H](CO)OC4=O)cc3F)cn2)n1 [Tedizolid]
fitness
Conditions	partner 0.03125 µg/mL	partner 0.0625 µg/mL	partner 0.125 µg/mL	partner 0.25 µg/mL	partner 0.5 µg/mL
S. aureus DSM 20231 [2], first compound 0.625 µg/mL	–	0.966	0.842	–	–
S. aureus DSM 20231 [2], first compound 1.25 µg/mL	–	0.91	0.839	0.552	–
S. aureus DSM 20231 [2], first compound 2.5 µg/mL	–	0.982	0.851	–	–
S. aureus Newman [1], first compound 0.625 µg/mL	–	0.985	0.875	0.521	–
S. aureus Newman [1], first compound 0.781 µg/mL	–	0.954	0.861	–	–
S. aureus Newman [1], first compound 1.25 µg/mL	–	0.948	0.89	0.509	–
S. aureus Newman [1], first compound 1.562 µg/mL	–	0.951	0.88	–	–
S. aureus Newman [1], first compound 2.5 µg/mL	–	0.93	0.874	–	–
S. aureus Newman [1], first compound 3.124 µg/mL	–	0.957	0.866	–	–
S. pneumoniae D39V [3], first compound 1.073 µg/mL	–	–	0.768	0.856	–
S. pneumoniae D39V [3], first compound 1.25 µg/mL	0.959	0.98	0.831	–	–
S. pneumoniae D39V [3], first compound 2.145 µg/mL	–	–	0.807	0.845	0.255
S. pneumoniae D39V [3], first compound 2.5 µg/mL	0.974	0.998	0.85	–	–
S. pneumoniae D39V [3], first compound 4.29 µg/mL	–	–	0.814	0.838	0.259
S. pneumoniae D39V [3], first compound 5 µg/mL	0.958	0.971	0.85	–	–

Conditions	Bliss interaction score
B. subtilis 168	-0.0352
S. aureus DSM 20231 [5]	0.0997
S. aureus Newman [4]	0.105
S. pneumoniae D39V [6]	-0.0886

COc1ccc(C[C@H](N)C(=O)N[C@H]2[C@@H](O)[C@H](n3cnc4c(N(C)C)ncnc43)O[C@@H]2CO)cc1 [Puromycin] + CN[C@H](CC(C)C)C(=O)N[C@H]1C(=O)N[C@@H](CC(N)=O)C(=O)N[C@H]2C(=O)N[C@H]3C(=O)N[C@H](C(=O)N[C@H](C(=O)O)c4cc(O)cc(O)c4-c4cc3ccc4O)[C@H](O)c3ccc(c(Cl)c3)Oc3cc2cc(c3O[C@@H]2O[C@H](CO)[C@@H](O)[C@H](O)[C@H]2O[C@H]2C[C@](C)(N)[C@H](O)[C@H](C)O2)Oc2ccc(cc2Cl)[C@H]1O [Vancomycin]
fitness
Conditions	S. aureus DSM 20231 [2]	S. aureus Newman [1]	S. pneumoniae D39V [3]
first compound 0.39 µg/mL, partner 0.1875 µg/mL	≥ 1	≥ 1	–
first compound 0.39 µg/mL, partner 0.375 µg/mL	0.986	0.996	–
first compound 0.39 µg/mL, partner 0.75 µg/mL	≥ 1	≥ 1	–
first compound 0.78 µg/mL, partner 0.1875 µg/mL	≥ 1	≥ 1	–
first compound 0.78 µg/mL, partner 0.375 µg/mL	≥ 1	0.994	–
first compound 0.78 µg/mL, partner 0.75 µg/mL	≥ 1	0.979	–
first compound 1 µg/mL, partner 0.03125 µg/mL	–	–	0.999
first compound 1 µg/mL, partner 0.0625 µg/mL	–	–	0.989
first compound 1 µg/mL, partner 0.125 µg/mL	–	–	0.8
first compound 1.56 µg/mL, partner 0.1875 µg/mL	≥ 1	≥ 1	–
first compound 1.56 µg/mL, partner 0.375 µg/mL	≥ 1	0.978	–
first compound 1.56 µg/mL, partner 0.75 µg/mL	≥ 1	0.999	–
first compound 2 µg/mL, partner 0.03125 µg/mL	–	–	0.985
first compound 2 µg/mL, partner 0.0625 µg/mL	–	–	0.969
first compound 2 µg/mL, partner 0.125 µg/mL	–	–	0.849
first compound 4 µg/mL, partner 0.03125 µg/mL	–	–	0.808
first compound 4 µg/mL, partner 0.0625 µg/mL	–	–	0.822

one replicate
Conditions	fitness
S. aureus DSM 20231 [2], first compound 3.12 µg/mL, partner 0.1875 µg/mL	≥ 1
S. aureus DSM 20231 [2], first compound 3.12 µg/mL, partner 0.375 µg/mL	0.915
S. aureus DSM 20231 [2], first compound 3.12 µg/mL, partner 0.75 µg/mL	0.922
S. aureus DSM 20231 [2], first compound 6.24 µg/mL, partner 0.1875 µg/mL	0.642
S. aureus DSM 20231 [2], first compound 6.24 µg/mL, partner 0.375 µg/mL	0.737
S. aureus DSM 20231 [2], first compound 6.24 µg/mL, partner 0.75 µg/mL	0.716
S. pneumoniae D39V [3], first compound 1 µg/mL, partner 0.25 µg/mL	0.088
S. pneumoniae D39V [3], first compound 1 µg/mL, partner 0.5 µg/mL	0.0805
S. pneumoniae D39V [3], first compound 2 µg/mL, partner 0.25 µg/mL	0.223
S. pneumoniae D39V [3], first compound 2 µg/mL, partner 0.5 µg/mL	0.125
S. pneumoniae D39V [3], first compound 4 µg/mL, partner 0.25 µg/mL	0.141
S. pneumoniae D39V [3], first compound 4 µg/mL, partner 0.5 µg/mL	0.121

Conditions	Bliss interaction score
B. subtilis 168	-0.0411
S. aureus DSM 20231 [5]	0.0659
S. aureus Newman [4]	0.0575
S. pneumoniae D39V [6]	-0.0711

COc1ccc(C[C@H](N)C(=O)N[C@H]2[C@@H](O)[C@H](n3cnc4c(N(C)C)ncnc43)O[C@@H]2CO)cc1 [Puromycin] + Cn1nnc(-c2ccc(-c3ccc(N4C[C@H](CO)OC4=O)cc3F)cn2)n1 [Tedizolid]
fitness
Conditions	partner 0.03125 µg/mL	partner 0.0625 µg/mL	partner 0.125 µg/mL	partner 0.25 µg/mL
S. aureus DSM 20231 [2], first compound 0.39 µg/mL	–	0.879	0.7	0.24
S. aureus DSM 20231 [2], first compound 0.78 µg/mL	–	0.831	0.794	0.267
S. aureus DSM 20231 [2], first compound 1.56 µg/mL	–	0.827	–	0.157
S. aureus Newman [1], first compound 0.39 µg/mL	–	0.987	0.884	0.479
S. aureus Newman [1], first compound 0.78 µg/mL	–	0.935	0.834	0.404
S. aureus Newman [1], first compound 1.56 µg/mL	–	0.942	0.829	0.304
S. pneumoniae D39V [3], first compound 1 µg/mL	0.967	0.966	0.787	–
S. pneumoniae D39V [3], first compound 2 µg/mL	0.958	0.935	0.78	–
S. pneumoniae D39V [3], first compound 4 µg/mL	0.819	0.828	0.756	–

fitness, one replicate
Conditions	partner 0.0625 µg/mL	partner 0.125 µg/mL	partner 0.25 µg/mL	partner 0.5 µg/mL
S. aureus DSM 20231 [2], first compound 3.12 µg/mL	0.503	0.148	0.0225	–
S. aureus DSM 20231 [2], first compound 6.24 µg/mL	0.224	0.0566	0.0172	–
S. pneumoniae D39V [3], first compound 1 µg/mL	–	–	0.652	0.184
S. pneumoniae D39V [3], first compound 2 µg/mL	–	–	0.686	0.284
S. pneumoniae D39V [3], first compound 4 µg/mL	–	–	0.499	0.234

Conditions	Bliss interaction score
B. subtilis 168	-0.0598
S. aureus DSM 20231 [5]	-0.0959
S. aureus Newman [4]	0.0352
S. pneumoniae D39V [6]	-0.1
